The source of these data is US5354549A, “Iodinated esters” (Nycomed Imaging AS, priority 1987, dated 1994).

A short description of data set [1]: In vitro biodegradation in Seronorm (release of Isopaque analysed by HPLC). It is filed as in vitro ADME. Conditions: pH 7.4, 37° C. On the procedure:
(§1) The powdered product of Example 1 is suspended in Seronorm (5 mg/ml) (Seronorm is a trade mark of Nycomed AS) at pH 7.4 and agitated at 37° C. As a control the experiment is also performed in phosphate buffered saline (PBS) at pH 7.4. At different time points samples are taken from the supernatant after centrifugation of the vial (4,000 rpm, 10 minutes). The release of Isopaque (5-(N-acetylamino)-3-(N-acetyl-N-methylamino)-2,4,6-triiodobenzenecarboxylic acid) is analysed by HPLC. More than 50% of the substance is hydrolysed during 6 hours and after 24 hours 90% is hydrolysed.
(§2) The powdered product of Example 3 is suspended in Seronorm (0.5 mg/ml) at pH 7.4 and agitated at 37° C. As a control the experiment is also performed in phosphate buffered saline (PBS) at pit 7.4. At different time points samples are taken from the supernatant after centrifugation of the vial (4,000 rpm, 10 minutes). The release of Isopaque (5-(N-acetylamino)-3-(N-acetyl-N-methylamino)-2,4,6-triiodobenzenecarboxylic acid) is analysed by HPLC. 4.1% of the substance is hydrolysed during 24 hours. In PBS 0.12% is hydrolysed during 72 hours.
(§3) The powdered product of Example 10 is suspended in Seronorm (0.5 mg/ml) at pH 7.4 and agitated at 37° C. As a control the experiment is also performed in phosphate buffered saline (PBS) at pH 7.4. At different time points samples are taken from the supernatant after centrifugation of the vial (4,000 rpm, 10 minutes). The release of Isopaque (5-(N-acetylamino)-3-(N-acetyl-N-methylamino)-2,4,6-triiodobenzenecarboxylic acid) is analysed by HPLC. […] In PBS 58% is hydrolysed during 72 hours.
(§4) The powdered product of Example 4 is suspended in Seronorm at (0.5 mg/ml) pH 7.4 and agitated at 37° C. As a control the experiment is also performed in phosphate buffered saline (PBS) at pH 7.4. At different time points samples are taken from the supernatant after centrifugation of the vial (4,000 rpm, 10 minutes). The release of Isopaque (5-(N-acetylamino)-3-(N-acetyl-N-methylamino)-2,4,6-triiodobenzenecarboxylic acid) is analysed by HPLC. […] In PBS 34% was hydrolysed during 24 hours.

The nature of data set [2]: In vitro biodegradation, control in phosphate buffered saline (PBS). It is filed as in vitro ADME. The settings on record: for degraded at 72 h: pH 7.4, 72 hours. As to the method: as §1, §2, §3, §4
Setting [3] is: read-out: substance hydrolysed in PBS.

Where two headings read alike, the source gives them in different places.

On to `CC(=O)Nc1c(I)c(C(=O)OCOC(=O)C(C)(C)C)c(I)c(N(C)C(C)=O)c1I` [Example 1, Pivaloyloxymethyl 5-(N-acetylamino)-3-(N-acetyl-N-methylamino)-2,4,6-triiodobenzenecarboxylate], for which the metabolised at 6 h in data set [1] (5 mg/ml, 6 hours, read-out: substance hydrolysed) is more than 50%. Moreover, the metabolised at 24 h in data set [1] (5 mg/ml, read-out: substance hydrolysed) was determined as 90%. In addition, in data set [2] (pH 7.4, control), the “hydrolysis in PBS” value is recorded as “no hydrolysis could be detected”.
For `CC(=O)Nc1c(I)c(C(=O)OC(C)OC(=O)C(C)(C)C)c(I)c(N(C)C(C)=O)c1I` (stereo not shown) [Example 3, 1-(Pivaloylyloxy)ethyl 5-(N-acetylamino)-3-(N-acetyl-N-methyl-amino)-2,4,6-triiodobenzenecarboxylate], the metabolised at 24 h in data set [1] (0.5 mg/ml, read-out: substance hydrolysed) was 4.1%. In addition, in data set [2] (setting [3]), the degraded at 72 h amounted to 0.12%.
As for `CC(=O)Nc1c(I)c(C(=O)OC(C)OC(C)=O)c(I)c(N(C)C(C)=O)c1I` (stereo not shown) [Example 4, 1-(Acetyloxy)ethyl 5-(N-acetylamino)-3-(N-acetyl-N-methylamino)-2,4,6-triiodobenzenecarboxylate], the metabolised at 2 h in data set [1] (0.5 mg/ml, 2 hour incubation, read-out: substance hydrolysed) is 29%. Also, the “hydrolysis” value in data set [1] (0.5 mg/ml, after 24 hours) was “hydrolysis is complete”. For the same compound, the degraded at 24 h in data set [2] (pH 7.4, 24 hours, read-out: substance hydrolysed in PBS) was 34%.
`CC(=O)Nc1c(I)c(C(=O)OCOC(C)=O)c(I)c(N(C)C(C)=O)c1I` [Example 10, Acetyloxvmethyl 5-(N-acetylamino)-3-(N-acetyl-N-methylamino)-2,4,6-triiodobenzenecarboxylate]: the “hydrolysis of substrate” value in data set [1] (0.5 mg/ml, after 2 hours) is recorded as “completely hydrolysed”. Also, the degraded at 72 h in data set [2] (setting [3]) was 58%.
